Laboratory results published in ChEMBL document CHEMBL1201862, “PubChem BioAssay data set” (2004).
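Exposure lasted 48 hours, with cells grown in 96-well plates and compounds tested at five concentrations. GI50 marks 50% less growth.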 The source made the active and inactive calls. Cut-off read from the data, not from the text of the source: active = GI50 up to about 1.1 µM and inactive = higher.

Key:
Test in all cases: growth of human tumour cells (NCI), 48 h
BT-549 = test system: BT-549
SF-295 = test system: SF-295
SR = test system: SR
PC-3 = test system: PC-3
MCF7 = test system: MCF7
HL-60 = test system: HL-60
SNB-19 = test system: SNB-19
UACC-62 = test system: UACC-62
MDA-N = test system: MDA-N
T47D = test system: T47D
SNB-75 = test system: SNB-75
SK-MEL-28 = test system: SK-MEL-28
SW-620 = test system: SW-620
Malme-3M = test system: Malme-3M
HCT-116 = test system: HCT-116
CAKI-1 = test system: CAKI-1
786-0 = test system: 786-0
U-251 = test system: U-251
SN12C = test system: SN12C
A549 = test system: A549
RPMI-8226 = test system: RPMI-8226
UO-31 = test system: UO-31
SK-MEL-2 = test system: SK-MEL-2
HT-29 = test system: HT-29
MDA-MB-231 = test system: MDA-MB-231
MOLT-4 = test system: MOLT-4
TK-10 = test system: TK-10
CCRF-CEM = test system: CCRF-CEM
OVCAR-4 = test system: OVCAR-4
HCT-15 = test system: HCT-15
OVCAR-8 = test system: OVCAR-8
SF-539 = test system: SF-539
NCI-H226 = test system: NCI-H226
EKVX = test system: EKVX
OVCAR-3 = test system: OVCAR-3
MDA-MB-435 = test system: MDA-MB-435
RXF 393 = test system: RXF 393
NCI/ADR-RES = test system: NCI/ADR-RES
A498 = test system: A498
K562 = test system: K562
LOX IMVI = test system: LOX IMVI
SK-OV-3 = test system: SK-OV-3
M14 = test system: M14
DU-145 = test system: DU-145
NCI-H522 = test system: NCI-H522
KM12 = test system: KM12
UACC-257 = test system: UACC-257
IGROV-1 = test system: IGROV-1
SF-268 = test system: SF-268
COLO 205 = test system: COLO 205
OVCAR-5 = test system: OVCAR-5
Hs-578T = test system: Hs-578T
HOP-62 = test system: HOP-62
NCI-H460 = test system: NCI-H460
SK-MEL-5 = test system: SK-MEL-5
ACHN = test system: ACHN
HOP-92 = test system: HOP-92
HCC 2998 = test system: HCC 2998
NCI-H23 = test system: NCI-H23

`O=C(NNC(=O)c1ccccc1O)c1ccco1` was tested, and the GI50 (BT-549) was > 100 µM (inactive), the GI50 (SF-295) was > 100 µM (inactive) and the GI50 (SR) was 66.7 µM (inactive). The GI50 (PC-3) was > 100 µM (inactive), the GI50 (MCF7) was > 100 µM (inactive) and the GI50 (HL-60) was 28.9 µM (inactive). For the same compound, the GI50 (SNB-19) was > 100 µM (inactive), the GI50 (UACC-62) was > 100 µM (inactive) and the GI50 (MDA-N) was > 100 µM (inactive). For the same compound, the GI50 (T47D) was > 100 µM (inactive), the GI50 (SNB-75) was 38.6 µM (inactive) and the GI50 (SK-MEL-28) was > 100 µM (inactive). The GI50 (SW-620) was 67.8 µM (inactive), the GI50 (Malme-3M) was > 100 µM (inactive) and the GI50 (HCT-116) was 97.5 µM (inactive). The GI50 (CAKI-1) was > 100 µM (inactive), the GI50 (786-0) was > 100 µM (inactive) and the GI50 (U-251) was > 100 µM (inactive). The GI50 (SN12C) was > 100 µM (inactive), the GI50 (A549) was > 100 µM (inactive) and the GI50 (RPMI-8226) was 84.5 µM (inactive). The GI50 (UO-31) was > 100 µM (inactive), the GI50 (SK-MEL-2) was > 100 µM (inactive) and the GI50 (HT-29) was 51.5 µM (inactive). For the same compound, the GI50 (MDA-MB-231) was 60.5 µM (inactive), the GI50 (MOLT-4) was > 100 µM (inactive) and the GI50 (TK-10) was > 100 µM (inactive). The GI50 (CCRF-CEM) was 31.3 µM (inactive), the GI50 (OVCAR-4) was > 100 µM (inactive) and the GI50 (HCT-15) was 61.1 µM. The GI50 (OVCAR-8) was 80.7 µM (inactive), the GI50 (SF-539) was > 100 µM (inactive) and the GI50 (NCI-H226) was > 100 µM (inactive). The GI50 (EKVX) was > 100 µM (inactive), the GI50 (OVCAR-3) was 57.4 µM (inactive) and the GI50 (MDA-MB-435) was > 100 µM (inactive). For the same compound, the GI50 (RXF 393) was > 100 µM (inactive), the GI50 (NCI/ADR-RES) was 55.7 µM (inactive) and the GI50 (A498) was > 100 µM (inactive). For the same compound, the GI50 (K562) was > 100 µM (inactive), the GI50 (LOX IMVI) was > 100 µM (inactive) and the GI50 (SK-OV-3) was > 100 µM (inactive). For the same compound, the GI50 (M14) was > 100 µM (inactive), the GI50 (DU-145) was > 100 µM (inactive) and the GI50 (NCI-H522) was 57.3 µM (inactive). The GI50 (KM12) was > 100 µM (inactive), the GI50 (UACC-257) was > 100 µM (inactive) and the GI50 (IGROV-1) was 64.9 µM (inactive). For the same compound, the GI50 (SF-268) was > 100 µM (inactive), the GI50 (COLO 205) was 83 µM (inactive) and the GI50 (OVCAR-5) was > 100 µM (inactive). For the same compound, the GI50 (Hs-578T) was > 100 µM (inactive), the GI50 (HOP-62) was > 100 µM (inactive) and the GI50 (NCI-H460) was 45.4 µM (inactive). For the same compound, the GI50 (SK-MEL-5) was > 100 µM (inactive).

With `CC(C)Nc1[nH]c(C(=O)c2ccccc2)c(N)c1C(=S)Nc1ccccc1` the GI50 (BT-549) was > 100 µM (inactive), the GI50 (SF-295) was > 100 µM (inactive) and the GI50 (SR) was 43.5 µM (inactive). For the same compound, the GI50 (PC-3) was > 100 µM (inactive), the GI50 (MCF7) was 40.4 µM (inactive) and the GI50 (HL-60) was > 100 µM (inactive). The GI50 (SNB-19) was > 100 µM (inactive), the GI50 (UACC-62) was 16.9 µM (inactive) and the GI50 (MDA-N) was 40.4 µM (inactive). For the same compound, the GI50 (T47D) was 69.8 µM (inactive), the GI50 (ACHN) was 63.1 µM (inactive) and the GI50 (SNB-75) was 69.3 µM (inactive). The GI50 (SK-MEL-28) was 17.4 µM (inactive), the GI50 (SW-620) was 47 µM (inactive) and the GI50 (Malme-3M) was 19.3 µM (inactive). For the same compound, the GI50 (HCT-116) was 36.1 µM (inactive), the GI50 (CAKI-1) was > 100 µM (inactive) and the GI50 (786-0) was 36.5 µM (inactive). The GI50 (U-251) was 43.2 µM (inactive), the GI50 (SN12C) was > 100 µM (inactive) and the GI50 (A549) was 90.6 µM (inactive). For the same compound, the GI50 (UO-31) was 77.1 µM (inactive), the GI50 (SK-MEL-2) was 23.8 µM (inactive) and the GI50 (HT-29) was 27.9 µM (inactive). For the same compound, the GI50 (MDA-MB-231) was 28.5 µM (inactive), the GI50 (MOLT-4) was 80.9 µM (inactive) and the GI50 (TK-10) was 57.1 µM (inactive). For the same compound, the GI50 (CCRF-CEM) was > 100 µM (inactive), the GI50 (OVCAR-4) was 71.9 µM (inactive) and the GI50 (HCT-15) was 32.8 µM. The GI50 (OVCAR-8) was 84.7 µM (inactive), the GI50 (SF-539) was > 100 µM (inactive) and the GI50 (NCI-H226) was 41.3 µM (inactive). The GI50 (EKVX) was > 100 µM (inactive), the GI50 (OVCAR-3) was > 100 µM (inactive) and the GI50 (MDA-MB-435) was 30.8 µM (inactive). The GI50 (NCI/ADR-RES) was > 100 µM (inactive), the GI50 (A498) was 77.6 µM (inactive) and the GI50 (HOP-92) was > 100 µM (inactive). For the same compound, the GI50 (K562) was 60.8 µM (inactive), the GI50 (LOX IMVI) was 23.2 µM (inactive) and the GI50 (SK-OV-3) was > 100 µM (inactive). The GI50 (M14) was 23.2 µM (inactive), the GI50 (DU-145) was > 100 µM (inactive) and the GI50 (NCI-H522) was 63.8 µM (inactive). For the same compound, the GI50 (KM12) was 31.7 µM (inactive), the GI50 (UACC-257) was 22.9 µM (inactive) and the GI50 (IGROV-1) was > 100 µM (inactive). The GI50 (SF-268) was 67.8 µM (inactive), the GI50 (COLO 205) was 28.1 µM (inactive) and the GI50 (OVCAR-5) was > 100 µM (inactive). For the same compound, the GI50 (Hs-578T) was 86.1 µM (inactive), the GI50 (HOP-62) was > 100 µM (inactive) and the GI50 (NCI-H460) was 57 µM (inactive). For the same compound, the GI50 (SK-MEL-5) was 28.9 µM (inactive), the GI50 (HCC 2998) was 21.8 µM (inactive) and the GI50 (NCI-H23) was > 100 µM (inactive).

`CCN(CC)C(=S)N/N=C/c1cc(OC)ccc1O` was tested, and the GI50 (BT-549) was 7.05 µM (inactive), the GI50 (SF-295) was 4.11 µM (inactive) and the GI50 (SR) was 2.76 µM (inactive). For the same compound, the GI50 (PC-3) was 8.85 µM (inactive), the GI50 (MCF7) was 3.84 µM (inactive) and the GI50 (HL-60) was 2.46 µM (inactive). For the same compound, the GI50 (SNB-19) was 8.91 µM (inactive), the GI50 (UACC-62) was 4.25 µM (inactive) and the GI50 (MDA-N) was 6.68 µM (inactive). The GI50 (T47D) was 7.28 µM (inactive), the GI50 (ACHN) was 2.98 µM (inactive) and the GI50 (SNB-75) was 19.4 µM (inactive). For the same compound, the GI50 (SK-MEL-28) was 3.72 µM (inactive), the GI50 (SW-620) was 8.28 µM (inactive) and the GI50 (Malme-3M) was 4.23 µM (inactive). The GI50 (HCT-116) was 4.86 µM (inactive), the GI50 (786-0) was 2.75 µM (inactive) and the GI50 (U-251) was 3.61 µM (inactive). For the same compound, the GI50 (SN12C) was 5.79 µM (inactive), the GI50 (A549) was 4.17 µM (inactive) and the GI50 (UO-31) was 0.561 µM (active). For the same compound, the GI50 (SK-MEL-2) was 74.1 µM (inactive), the GI50 (HT-29) was 7 µM (inactive) and the GI50 (MDA-MB-231) was 30.7 µM (inactive). The GI50 (MOLT-4) was 2.09 µM (inactive), the GI50 (TK-10) was 4.3 µM (inactive) and the GI50 (CCRF-CEM) was 0.895 µM (active). The GI50 (OVCAR-4) was 3.56 µM (inactive), the GI50 (HCT-15) was 1.36 µM and the GI50 (OVCAR-8) was 4.51 µM (inactive). The GI50 (SF-539) was 6.97 µM (inactive), the GI50 (NCI-H226) was 3.03 µM (inactive) and the GI50 (EKVX) was 10.4 µM (inactive). For the same compound, the GI50 (OVCAR-3) was 2.1 µM (inactive), the GI50 (MDA-MB-435) was 6.18 µM (inactive) and the GI50 (RXF 393) was 9.04 µM (inactive). For the same compound, the GI50 (NCI/ADR-RES) was 2.58 µM (inactive), the GI50 (A498) was 2.02 µM (inactive) and the GI50 (K562) was 4.52 µM (inactive). For the same compound, the GI50 (LOX IMVI) was 2.32 µM (inactive), the GI50 (SK-OV-3) was 5.21 µM (inactive) and the GI50 (M14) was 3.69 µM (inactive). For the same compound, the GI50 (DU-145) was 5.86 µM (inactive), the GI50 (NCI-H522) was 3.85 µM (inactive) and the GI50 (KM12) was 1.7 µM (inactive). The GI50 (UACC-257) was 7.31 µM (inactive), the GI50 (IGROV-1) was 6.37 µM (inactive) and the GI50 (SF-268) was 1.87 µM (inactive). For the same compound, the GI50 (COLO 205) was 3.86 µM (inactive), the GI50 (OVCAR-5) was 57.5 µM (inactive) and the GI50 (Hs-578T) was 69.8 µM (inactive). For the same compound, the GI50 (HOP-62) was 7.5 µM (inactive), the GI50 (NCI-H460) was 1.66 µM (inactive) and the GI50 (SK-MEL-5) was 6.22 µM (inactive). For the same compound, the GI50 (HCC 2998) was 3.86 µM (inactive) and the GI50 (NCI-H23) was 7.98 µM (inactive).
